Source: PMC9827108 (Cancer Discovery, 2022)
Like-named read-outs stand apart in the source and are kept apart here.

Tests used:
[1] = tested on: patients with EGFRm, MET-amplified/overexpressed NSCLC; format: in vivo, human
[2] = format: in vivo, human; conditions: Parts B and D

Compound | Any AE grade ≥3 possibly causally related to the labelled drug(s) only ([1]; All Part B) | Any AE leading to discontinuation of the labelled drug ([1]; All Part B) | Any AE leading to interruption or reduction of the labelled drug ([1]; All Part B) | Any SAE leading to discontinuation of the labelled drug ([1]; All Part B) | Any SAE leading to interruption or reduction of the labelled drug ([1]; All Part B) | Any SAE possibly causally related to the labelled drug(s) only ([1]; All Part B) | Labelled drug discontinued due to possibly causally related AE: vomiting ([1]; All Part B) | Any AE grade ≥3 possibly causally related to the labelled drug(s) only ([1]; Part B1) | Any AE leading to discontinuation of the labelled drug ([1]; Part B1) | Any AE leading to interruption or reduction of the labelled drug ([1]; Part B1) | Any SAE leading to discontinuation of the labelled drug ([1]; Part B1) | Any SAE leading to interruption or reduction of the labelled drug ([1]; Part B1) | Any SAE possibly causally related to the labelled drug(s) only ([1]; Part B1) | Any AE grade ≥3 possibly causally related to the labelled drug(s) only ([1]; Part B2) | Any AE leading to discontinuation of the labelled drug ([1]; Part B2) | Any AE leading to interruption or reduction of the labelled drug ([1]; Part B2) | Any SAE leading to discontinuation of the labelled drug ([1]; Part B2) | Any SAE leading to interruption or reduction of the labelled drug ([1]; Part B2) | Any SAE possibly causally related to the labelled drug(s) only ([1]; Part B2) | Any AE grade ≥3 possibly causally related to the labelled drug(s) only ([1]; Part B3) | other results
C=CC(=O)Nc1cc(Nc2nccc(-c3cn(C)c4ccccc34)n2)c(OC)cc1N(C)CCN(C)C [osimertinib] | 8 (6) n (%) | 24 (17) n (%) | 59 (43%) n (%) | 20 (14) n (%) | 27 (20) n (%) | 0 n (%) | 2 (1%) n (%) | 3 (4) n (%) | 12 (17) n (%) | 22 (32) n (%) | 9 (13) n (%) | 10 (14) n (%) | 0 n (%) | 3 (6) n (%) | 9 (18) n (%) | 25 (49) n (%) | 8 (16) n (%) | 11 (22) n (%) | 0 n (%) | 2 (11) n (%) | Labelled drug discontinued due to possibly causally related AE: pneumonitis ([1]; All Part B): 3 (2%) n (%); Any AE leading to interruption or reduction of the labelled drug ([1]; All Part B, listed as Osimertinib): 59 (43) n (%); Any AE leading to discontinuation of the labelled drug ([1]; Part B3): 3 (17) n (%); Any AE leading to interruption or reduction of the labelled drug ([1]; Part B3): 12 (67) n (%); Any SAE leading to discontinuation of the labelled drug ([1]; Part B3): 3 (17) n (%); Any SAE leading to interruption or reduction of the labelled drug ([1]; Part B3): 6 (33) n (%); Any SAE possibly causally related to the labelled drug(s) only ([1]; Part B3): 0 n (%); Any AE grade ≥3 possibly causally related to the labelled drug(s) only ([1]; Part D): 2 (5) n (%); Any AE leading to discontinuation of the labelled drug ([1]; Part D): 8 (19) n (%); Any AE leading to interruption or reduction of the labelled drug ([1]; Part D): 13 (31) n (%); Any SAE leading to discontinuation of the labelled drug ([1]; Part D): 2 (5) n (%); Any SAE leading to interruption or reduction of the labelled drug ([1]; Part D): 10 (24) n (%); Any SAE possibly causally related to the labelled drug(s) only ([1]; Part D): 1 (2) n (%)
C[C@@H](c1ccc2nccn2c1)n1nnc2ncc(-c3cnn(C)c3)nc21 [savolitinib, (S)-1-(1-(Imidazo[1,2-a]pyridin-6-yl)ethyl)-6-(1-methyl-1H-pyrazol-4-yl)-1H-[1,2, 3]triazolo[4,5-b]pyrazine] | 34 (25) n (%) | 49 (36) n (%) | 61 (44%) n (%) | 28 (20) n (%) | 20 (14) n (%) | 15 (11) n (%) | 4 (3%) n (%) | 14 (20) n (%) | 19 (28) n (%) | 27 (39) n (%) | 11 (16) n (%) | 9 (13) n (%) | 6 (9) n (%) | 13 (25) n (%) | 20 (39) n (%) | 25 (49) n (%) | 11 (22) n (%) | 9 (18) n (%) | 6 (12) n (%) | 7 (39) n (%) | Any AE leading to interruption or reduction of the labelled drug ([1]; All Part B, listed as Savolitinib): 61 (44) n (%); Deaths due to AEs considered possibly causally related to study drug ([1]; Part B2): one case was considered possibly related to savolitinib (acute renal failure); Any AE leading to discontinuation of the labelled drug ([1]; Part B3): 10 (56) n (%); Any AE leading to interruption or reduction of the labelled drug ([1]; Part B3): 9 (50) n (%); Any SAE leading to discontinuation of the labelled drug ([1]; Part B3): 6 (33) n (%); Any SAE leading to interruption or reduction of the labelled drug ([1]; Part B3): 2 (11) n (%); Any SAE possibly causally related to the labelled drug(s) only ([1]; Part B3): 3 (17) n (%); Any AE grade ≥3 possibly causally related to the labelled drug(s) only ([1]; Part D): 5 (12) n (%); Any AE leading to discontinuation of the labelled drug ([1]; Part D): 15 (36) n (%); Any AE leading to interruption or reduction of the labelled drug ([1]; Part D): 16 (38) n (%); Any SAE leading to discontinuation of the labelled drug ([1]; Part D): 6 (14) n (%); Any SAE leading to interruption or reduction of the labelled drug ([1]; Part D): 7 (17) n (%); Any SAE possibly causally related to the labelled drug(s) only ([1]; Part D): 2 (5) n (%); Labelled drug discontinued due to possibly causally related AE: myalgia ([1]; Part D): 3 (7%) n (%); Labelled drug discontinued due to possibly causally related AE: pyrexia ([1]; Part D): 2 (5%) n (%); Labelled drug discontinued due to possibly causally related AE: rash ([1]; Part D): 2 (5%) n (%); Accumulation and time dependence of PK at steady state ([2]; multiple dosing): neither apparent accumulation nor time-dependent PK changes upon multiple dosing; half-life ([2]; human, plasma, oral, Mean terminal elimination half-life (t1/2λz), single and multiple dosing): 2 to 4 h; Tmax ([2]; human, plasma, oral, Median tmax and tssmax, savolitinib 600 mg/300 mg q.d. + osimertinib 80 mg q.d.): 2 to 4 h
